Assay results: patent publication US20250388544A1, “HETEROAROMATIC INHIBITORS OF ASTACIN PROTEINASES” (VIVORYON THERAPEUTICS N.V., priority 2019, published 2025)

Key:
Type in all cases: biochemical
hMeprin α = target: T1, hMeprin α (Homo sapiens, UniProt Q16819); assay: Enzymatic assay, quenched peptide substrate cleavage, method A; conditions: geometric mean (geometric SD factor in parentheses), read-out: Meprin alpha IC50
T1 sequence (Q16819 66-746): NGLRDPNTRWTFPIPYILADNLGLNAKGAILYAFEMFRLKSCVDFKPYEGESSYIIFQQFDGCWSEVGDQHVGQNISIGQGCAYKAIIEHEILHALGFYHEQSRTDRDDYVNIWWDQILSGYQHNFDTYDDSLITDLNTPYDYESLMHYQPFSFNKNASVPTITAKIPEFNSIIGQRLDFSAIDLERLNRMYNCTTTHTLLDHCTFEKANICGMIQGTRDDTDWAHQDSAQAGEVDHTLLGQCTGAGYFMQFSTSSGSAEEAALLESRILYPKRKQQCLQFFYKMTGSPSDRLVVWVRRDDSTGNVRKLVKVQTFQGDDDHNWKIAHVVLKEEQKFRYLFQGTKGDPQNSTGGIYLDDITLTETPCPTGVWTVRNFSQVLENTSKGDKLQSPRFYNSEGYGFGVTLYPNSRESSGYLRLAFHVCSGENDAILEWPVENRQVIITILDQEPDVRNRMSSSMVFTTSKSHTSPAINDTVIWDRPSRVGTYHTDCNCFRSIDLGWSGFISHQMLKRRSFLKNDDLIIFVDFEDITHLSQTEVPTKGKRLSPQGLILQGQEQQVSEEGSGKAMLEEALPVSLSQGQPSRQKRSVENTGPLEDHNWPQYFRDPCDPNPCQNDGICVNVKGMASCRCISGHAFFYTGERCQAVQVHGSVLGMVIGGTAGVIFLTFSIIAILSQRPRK

hMeprin β = target: T2, hMeprin β (Homo sapiens, UniProt Q16820); assay: as above; conditions: geometric mean (geometric SD factor in parentheses), read-out: Meprin beta IC50
T2 sequence (Q16820 62-701): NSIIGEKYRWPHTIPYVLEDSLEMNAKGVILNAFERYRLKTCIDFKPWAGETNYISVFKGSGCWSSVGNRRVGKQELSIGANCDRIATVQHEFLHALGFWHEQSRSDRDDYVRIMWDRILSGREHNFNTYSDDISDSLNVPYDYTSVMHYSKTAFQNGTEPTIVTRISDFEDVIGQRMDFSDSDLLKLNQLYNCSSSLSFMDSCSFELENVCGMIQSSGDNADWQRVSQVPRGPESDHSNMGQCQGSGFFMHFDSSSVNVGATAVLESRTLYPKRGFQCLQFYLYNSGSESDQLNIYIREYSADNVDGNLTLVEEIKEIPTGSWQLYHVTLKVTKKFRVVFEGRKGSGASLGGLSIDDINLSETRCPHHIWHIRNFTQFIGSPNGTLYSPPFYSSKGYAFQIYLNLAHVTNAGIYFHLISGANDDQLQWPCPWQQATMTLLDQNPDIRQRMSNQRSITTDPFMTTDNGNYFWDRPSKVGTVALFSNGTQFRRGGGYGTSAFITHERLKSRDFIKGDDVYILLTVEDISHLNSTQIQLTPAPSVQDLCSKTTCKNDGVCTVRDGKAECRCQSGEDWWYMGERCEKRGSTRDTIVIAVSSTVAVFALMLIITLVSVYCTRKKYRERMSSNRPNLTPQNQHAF

hMMP 9 = target: T3, hMMP 9 (Homo sapiens, UniProt P14780); assay: Residual enzyme activity of other metalloproteases; conditions: read-out: Residual enzyme activity MMP9; for remaining activity at 10 µM: 10 μM inhibitor; for remaining activity at 200 µM: 200 μM inhibitor
T3 construct: purchased R&D systems
Protocol: (§1) The determination of enzymatic activity was based on the cleavage of internally quenched peptide substrates. A typical assay of 250 μl total volume measured in black 96 well plates consisted of 100 μl buffer, 50 μl enzyme at a final concentration of 5e-8 M to 2e-10 M, 50 μl substrate (0.15 to 80 μM, in buffer, 0.5% DMSO) and 50 μl inhibitor solution (in buffer, 1% DMSO). In case of 125 μl assay volume (black 96 half area well plates) all volumes were cut in half. Enzymatic activity of ADAMs was measured in 384 well plates with 60 μl total assay volume consisting of 20 μl inhibitor, 20 μl buffer, 10 μl enzyme and 10 μl substrate.
MMPs were activated prior to measurement by APMA (p-aminophenylmercuric acetate) treatment according to manufacturer's instructions (R&D systems).

hADAM 10 = target: T4, hADAM 10 (Homo sapiens, UniProt O14672); assay: Residual enzyme activity of other metalloproteases; conditions: read-out: Residual enzyme activity ADAM10; for remaining activity at 10 µM: 10 μM inhibitor; for remaining activity at 200 µM: 200 μM inhibitor
T4 construct: purchased R&D systems
T4 sequence (O14672 214-748): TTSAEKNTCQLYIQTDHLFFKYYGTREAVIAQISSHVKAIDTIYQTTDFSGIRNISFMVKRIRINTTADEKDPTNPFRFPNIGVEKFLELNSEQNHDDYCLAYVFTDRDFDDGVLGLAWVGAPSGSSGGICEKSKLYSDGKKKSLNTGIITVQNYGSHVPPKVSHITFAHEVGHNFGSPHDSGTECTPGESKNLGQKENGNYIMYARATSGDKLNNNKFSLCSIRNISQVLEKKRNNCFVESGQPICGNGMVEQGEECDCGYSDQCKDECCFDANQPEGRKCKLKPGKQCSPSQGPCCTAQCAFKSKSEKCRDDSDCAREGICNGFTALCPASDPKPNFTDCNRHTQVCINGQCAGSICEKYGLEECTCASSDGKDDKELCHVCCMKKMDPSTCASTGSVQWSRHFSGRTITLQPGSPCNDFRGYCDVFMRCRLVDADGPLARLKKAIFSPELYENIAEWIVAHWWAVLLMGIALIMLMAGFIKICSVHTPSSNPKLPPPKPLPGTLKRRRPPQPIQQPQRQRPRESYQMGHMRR
Protocol: as §1

hADAM 17 = target: T5, hADAM 17 (Homo sapiens, UniProt P78536); assay: Residual enzyme activity of other metalloproteases; conditions: read-out: Residual enzyme activity ADAM17; for remaining activity at 10 µM: 10 μM inhibitor; for remaining activity at 200 µM: 200 μM inhibitor
T5 construct: purchased R&D systems
Protocol: as §1

T3 sequence (P14780 107-707 limits assumed): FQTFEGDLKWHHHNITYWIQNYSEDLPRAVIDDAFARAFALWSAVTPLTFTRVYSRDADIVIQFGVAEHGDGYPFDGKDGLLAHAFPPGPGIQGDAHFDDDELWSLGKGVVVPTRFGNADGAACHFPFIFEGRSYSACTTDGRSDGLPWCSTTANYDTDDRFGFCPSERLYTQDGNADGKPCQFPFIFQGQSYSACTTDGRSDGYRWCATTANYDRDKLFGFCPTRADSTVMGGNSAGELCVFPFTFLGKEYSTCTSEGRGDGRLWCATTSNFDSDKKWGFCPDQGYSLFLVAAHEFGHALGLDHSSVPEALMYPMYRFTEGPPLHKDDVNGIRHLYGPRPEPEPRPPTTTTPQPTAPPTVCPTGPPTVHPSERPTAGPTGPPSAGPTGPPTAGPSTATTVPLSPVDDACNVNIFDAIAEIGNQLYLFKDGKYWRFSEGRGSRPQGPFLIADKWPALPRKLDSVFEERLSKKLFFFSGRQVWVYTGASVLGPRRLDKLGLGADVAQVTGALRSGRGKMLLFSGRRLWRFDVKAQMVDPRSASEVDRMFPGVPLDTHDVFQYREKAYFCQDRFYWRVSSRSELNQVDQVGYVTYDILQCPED
T5 sequence (P78536 215-824): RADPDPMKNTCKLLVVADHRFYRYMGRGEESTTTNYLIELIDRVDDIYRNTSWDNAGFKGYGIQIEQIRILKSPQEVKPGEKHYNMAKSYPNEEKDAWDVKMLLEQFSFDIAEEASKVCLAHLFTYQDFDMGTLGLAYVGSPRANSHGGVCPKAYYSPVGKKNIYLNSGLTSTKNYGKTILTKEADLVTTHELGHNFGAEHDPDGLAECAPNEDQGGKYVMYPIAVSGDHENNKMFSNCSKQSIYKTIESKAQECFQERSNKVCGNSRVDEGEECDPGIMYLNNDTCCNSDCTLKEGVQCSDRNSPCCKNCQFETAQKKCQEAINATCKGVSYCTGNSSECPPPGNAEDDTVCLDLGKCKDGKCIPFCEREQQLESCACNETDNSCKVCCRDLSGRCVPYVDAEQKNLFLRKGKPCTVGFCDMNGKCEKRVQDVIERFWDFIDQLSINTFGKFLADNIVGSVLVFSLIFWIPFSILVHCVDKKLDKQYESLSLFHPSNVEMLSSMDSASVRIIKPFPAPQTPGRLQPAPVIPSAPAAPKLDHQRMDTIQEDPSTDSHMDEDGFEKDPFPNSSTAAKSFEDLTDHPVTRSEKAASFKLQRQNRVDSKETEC

IC50 (hMeprin α) [nM] | IC50 (hMeprin β) [nM] | remaining activity at 10 µM (hMMP 9) [%] | remaining activity at 200 µM (hMMP 9) [%] | remaining activity at 10 µM (hADAM 10) [%] | remaining activity at 200 µM (hADAM 10) [%] | remaining activity at 10 µM (hADAM 17) [%] | remaining activity at 200 µM (hADAM 17) [%] | SMILES
173 | 1630 | 96 | 68 | 87 | 76 | 92 | 56 | O=C(Cn1c(-c2ccccc2)nc2ccccc21)NO [Example 13, 2-(2-Phenylbenzimidazol-1-yl)ethanehydroxamic acid]
32 | 13700 | 89 | 39 | 75 | 21 | 75 | 24 | O=C(CCc1c(-c2ccccc2)noc1-c1ccccc1)NO [Example 4, 3-(3,5-Diphenylisoxazol-4-yl)propanehydroxamic acid]

SMILES | IC50 (hMeprin α) [nM] | IC50 (hMeprin β) [nM] | remaining activity at 10 µM (hMMP 9) [%] | remaining activity at 200 µM (hMMP 9) [%] | remaining activity at 10 µM (hADAM 10) [%] | remaining activity at 200 µM (hADAM 10) [%] | remaining activity at 10 µM (hADAM 17) [%] | remaining activity at 200 µM (hADAM 17) [%]
O=C(Cc1c(-c2ccccc2)noc1-c1ccccc1)NO [Example 2, 2-(3,5-Diphenylisoxazol-4-yl)ethanehydroxamic acid] | 7 | 831 | 86 | 16 | 80 | 22 | 62 | 9
